This note sets out measurements from patent US10532980B2, “N-methyl pyrazoles” (Prosetta Antiviral, Inc., priority 2015, dated 2020).

The subject of this assay is Influenza A virus (A/WSN/1933(H1N1)). The assay can be described thus: microbe, parasite or virus in culture. The following applies: MDCK, 24 h with compound, then 2 h drug-free medium. Format: cell-based.

For the compound `Cn1nc(C2CC2)cc1C(=O)NCc1cccc(C(F)(F)F)c1F` [Compound 1, 3-cyclopropyl-N-(2-fluoro-3-(trifluoromethyl)benzyl)-1-methyl-1H-pyrazole-5-carboxamide], the EC90 (usually the concentration needed for an effect of 90%) is 0.4 µM.
The result for `CC(C)c1cc(C(=O)NCc2cccc(C(F)(F)F)c2F)n(C)n1` [Compound 2, N-(2 fluoro-3-(trifluoromethyl)benzyl)-3-isopropyl-1-methyl-1H pyrazole-5-carboxamide] reads 0.1 µM; that for `Cn1nc(C2CC2)cc1C(=O)NCc1cccc(C(F)(F)F)c1Cl` [Compound 3, N-(2-chloro-3-(trifluoromethyl)benzyl)-3-cyclopropyl-1-methyl-1H-pyrazole-5-carboxamide], 1.1 µM.
The result for `CC(C)c1cc(C(=O)NCc2cccc(C(F)(F)F)c2Cl)n(C)n1` [Compound 4, N-(2-chloro-3-(trifluoromethyl)benzyl)-3-isopropyl-1-methyl-1H-pyrazole-5-carboxamide] reads 0.1 µM.
The result for `COc1cc(CNC(=O)c2cc(C(C)(C)C)nn2C)ccc1Cl` [Compound 5, 3-(tert-butyl)-N-(4-chloro-3-methoxybenzyl)-1-methyl-1H-pyrazole-5-carboxamide] reads 1.5 µM.
With `COc1cc(CNC(=O)c2cc(C3CC3)nn2C)ccc1Cl` [Compound 6, N-(4-chloro-3-methoxybenzyl)-3-cyclopropyl-1-methyl-1H-pyrazole-5-carboxamide], the EC90 came out at 1.5 µM.
As to `Cn1nc(C(C)(C)C)cc1C(=O)NCc1cccc(OC(F)(F)F)c1F` [Compound 7, 3-(tert-butyl)-N-(2-fluoro-3-(trifluoromethoxy)benzyl)-1-methyl-1H-pyrazole-5-carboxamide], the EC90 was found to be 1.8 µM.
Turning to `Cn1nc(C2CC2)cc1C(=O)NCc1cccc(OC(F)(F)F)c1F` [Compound 8, 3-cyclopropyl-N-(2-fluoro-3-(trifluoromethoxy)benzyl)-1-methyl-1H-pyrazole-5-carboxamide], the EC90 stood at 1.5 µM.
The result for `CC(C)c1cc(C(=O)NCc2cccc(OC(F)(F)F)c2F)n(C)n1` [Compound 9, N-(2-fluoro-3-(trifluoromethoxy)benzyl)-3-isopropyl-1-methyl-1H-pyrazole-5-carboxamide] reads 0.4 µM; that for `Cn1nc(C2CC2)cc1C(=O)NCc1cccc(OCC2CC2)c1F` [Compound 10, 3-cyclopropyl-N-(3-(cyclopropylmethoxy)-2-fluorobenzyl)-1-methyl-1H-pyrazole-5-carboxamide], 0.1 µM.
For the compound `Cc1ccc(CNC(=O)c2cc(C(C)(C)C)nn2C)cc1Cl` [Compound 11, 3-(tert-butyl)-N-(3-chloro-4-methylbenzyl)-1-methyl-1H-pyrazole-5-carboxamide], the EC90 worked out at 1.5 µM.
The result for `COc1ccc(CNC(=O)c2cc(C(C)(C)C)nn2C)cc1Cl` [Compound 12, 3-(tert-butyl)-N-(3-chloro-4-methoxybenzyl)-1-methyl-1H-pyrazole-5-carboxamide] reads 1.8 µM.
As for `CCCOc1ccc(CNC(=O)c2cc(C(C)C)nn2C)cc1Cl` [Compound 13, N-(3-chloro-4-propoxybenzyl)-3-isopropyl-1-methyl-1H-pyrazole-5-carboxamide], the figure is 0.4 µM.
Take `Cn1nc(C2CC2)cc1C(=O)NCc1ccc(OCC2CC2)c(Cl)c1` [Compound 14, N-(3-chloro-4-(cyclopropylmethoxy)benzyl)-3-cyclopropyl-1-methyl-1H-pyrazole-5-carboxamide]: the EC90 worked out at 0.4 µM.
The result for `CC(C)c1cc(C(=O)NCc2ccc(OCC3CC3)c(Cl)c2)n(C)n1` [Compound 15, N-(3-chloro-4-(cyclopropylmethoxy)benzyl)-3-isopropyl-1-methyl-1H-pyrazole-5-carboxamide] reads 0.4 µM.
The result for `CCOc1ccc(CNC(=O)c2cc(C(C)(C)C)nn2C)cc1Br` [Compound 16, N-(3-bromo-4-ethoxybenzyl)-3-(tert-butyl)-1-methyl-1H-pyrazole-5-carboxamide] reads 1 µM; that for `CCOc1ccc(CNC(=O)c2cc(C(C)C)nn2C)cc1Br` [Compound 17, N-(3-bromo-4-ethoxybenzyl)-3-isopropyl-1-methyl-1H-pyrazole-5-carboxamide], 0.4 µM.
For `COc1c(Br)cccc1CNC(=O)c1cc(C2CC2)nn1C` [Compound 18, N-(3-bromo-2-methoxybenzyl)-3-cyclopropyl-1-methyl-1H-pyrazole-5-carboxamide], the concentration for an effect of 90% (EC90) was 1.5 µM.
As for `Cc1c(F)cccc1CNC(=O)c1cc(C2CC2)nn1C` [Compound 19, 3-cyclopropyl-N-(3-fluoro-2-methylbenzyl)-1-methyl-1H-pyrazole-5-carboxamide], the figure is 1.5 µM; as for `Cc1cccc(CNC(=O)c2cc(C3CC3)nn2C)c1C` [Compound 20, 3-cyclopropyl-N-(2,3-dimethylbenzyl)-1-methyl-1H-pyrazole-5-carboxamide], 1.5 µM; as for `Cc1cccc(CNC(=O)c2cc(C3CC3)nn2C)c1OC(F)F` [Compound 21, 3-cyclopropyl-N-(2-(difluoromethoxy)-3-methylbenzyl)-1-methyl-1H-pyrazole-5-carboxamide], 2 µM.
As for `Cc1c(CNC(=O)c2cc(C3CC3)nn2C)cccc1C(F)(F)F` [Compound 22, 3-cyclopropyl-1-methyl-N-(2-methyl-3-(trifluoromethyl)benzyl)-1H-pyrazole-5-carboxamide], the figure is 0.3 µM.
The result for `COc1c(CNC(=O)c2cc(C3CC3)nn2C)cccc1C(F)(F)F` [Compound 24, 3-cyclopropyl-N-(2-methoxy-3-(trifluoromethyl)benzyl)-1-methyl-1H-pyrazole-5-carboxamide] reads 0.2 µM; that for `COc1c(CNC(=O)c2cc(C(C)C)nn2C)cccc1C(F)(F)F` [Compound 25, 3-isopropyl-N-(2-methoxy-3-(trifluoromethyl)benzyl)-1-methyl-1H-pyrazole-5-carboxamide], 0.4 µM; that for `COc1ccc(CNC(=O)c2cc(C3CC3)nn2C)cc1C(F)(F)F` [Compound 26, 3-cyclopropyl-N-(4-methoxy-3-(trifluoromethyl)benzyl)-1-methyl-1H-pyrazole-5-carboxamide], 0.8 µM.
Consider `COc1cc(CNC(=O)c2cc(C(C)(C)C)nn2C)ccc1C` [Compound 27, 3-(tert-butyl)-N-(3-methoxy-4-methylbenzyl)-1-methyl-1H-pyrazole-5-carboxamide], for which the EC90 turned out to be 1.5 µM.
The result for `COc1cccc(CNC(=O)c2cc(C3CC3)nn2C)c1C` [Compound 28, 3-cyclopropyl-N-(3-methoxy-2-methylbenzyl)-1-methyl-1H-pyrazole-5-carboxamide] reads 1.5 µM.
The result for `COc1cccc(CNC(=O)c2cc(C(C)C)nn2C)c1C` [Compound 29, 3-isopropyl-N-(3-methoxy-2-methylbenzyl)-1-methyl-1H-pyrazole-5-carboxamide] reads 1.5 µM.
The result for `COc1cccc(CNC(=O)c2cc(C3CC3)nn2C)c1C(F)(F)F` [Compound 30, 3-cyclopropyl-N-(3-methoxy-2-(trifluoromethyl)benzyl)-1-methyl-1H-pyrazole-5-carboxamide] reads 0.3 µM; that for `COc1cccc(CNC(=O)c2cc(C(C)(C)C)nn2C)c1O` [Compound 31, 3-(tert-butyl)-N-(2-hydroxy-3-methoxybenzyl)-1-methyl-1H-pyrazole-5-carboxamide], 1 µM; that for `COc1cccc(CNC(=O)c2cc(C(C)C)nn2C)c1OC` [Compound 32, N-(2,3-dimethoxybenzyl)-3-isopropyl-1-methyl-1H-pyrazole-5-carboxamide], 1 µM.
As for `CCCOc1c(CNC(=O)c2cc(C3CC3)nn2C)cccc1OC` [Compound 33, 3-cyclopropyl-N-(3-methoxy-2-propoxybenzyl)-1-methyl-1H-pyrazole-5-carboxamide], the EC90 worked out at 1.5 µM.
As for `Cn1nc(C(C)(C)C)cc1C(=O)NCc1cccc(OC(F)(F)F)c1O` [Compound 34, 3-(tert-butyl)-N-(2-hydroxy-3-(trifluoromethoxy)benzyl)-1-methyl-1H-pyrazole-5-carboxamide], the figure is 1.2 µM; as for `COc1c(CNC(=O)c2cc(C(C)(C)C)nn2C)cccc1OC(F)(F)F` [Compound 35, 3-(tert-butyl)-N-(2-methoxy-3-(trifluoromethoxy)benzyl)-1-methyl-1H-pyrazole-5-carboxamide], 0.2 µM.
The result for `COc1c(CNC(=O)c2cc(C3CC3)nn2C)cccc1OC(F)(F)F` [Compound 36, 3-cyclopropyl-N-(2-methoxy-3-(trifluoromethoxy)benzyl)-1-methyl-1H-pyrazole-5-carboxamide] reads 0.1 µM.
As for `CCOc1cccc(CNC(=O)c2cc(C(C)(C)C)nn2C)c1OC(F)F` [Compound 37, 3-(tert-butyl)-N-(2-(difluoromethoxy)-3-ethoxybenzyl)-1-methyl-1H-pyrazole-5-carboxamide], the figure is 0.1 µM.
Turning to `CCOc1cccc(CNC(=O)c2cc(C3CC3)nn2C)c1OC(F)F` [Compound 38, 3-cyclopropyl-N-(2-(difluoromethoxy)-3-ethoxybenzyl)-1-methyl-1H-pyrazole-5-carboxamide], the EC90 turned out to be 0.1 µM.
The result for `COc1c(CNC(=O)c2cc(C3CC3)nn2C)cccc1OCC1CCCC1` [Compound 39, N-(3-(cyclopentylmethoxy)-2-methoxybenzyl)-3-cyclopropyl-1-methyl-1H-pyrazole-5-carboxamide] reads 0.1 µM; that for `Cc1cc(CNC(=O)c2cc(C(C)C)nn2C)cc(C)c1OC(F)F` [Compound 40, N-(4-(difluoromethoxy)-3,5-dimethylbenzyl)-3-isopropyl-1-methyl-1H-pyrazole-5-carboxamide], 0.4 µM.
On to `CCOc1c(Br)cc(CNC(=O)c2cc(C3CC3)nn2C)cc1OC` [Compound 41, N-(3-bromo-4-ethoxy-5-methoxybenzyl)-3-cyclopropyl-1-methyl-1H-pyrazole-5-carboxamide], for which the EC90 turned out to be 0.4 µM.
In the case of `CCCOc1c(Cl)cc(CNC(=O)c2cc(C(C)C)nn2C)cc1OC` [Compound 42, N-(3-chloro-4-propoxy-5-methoxybenzyl)-3-isopropyl-1-methyl-1H-pyrazole-5-carboxamide], the EC90 is 0.2 µM.
